According to patent US10456407B2, “Combination therapy for treating cancer” (Epizyme, Inc., priority 2015, dated 2019):
Several values for one entry are separate records, joined by “and”; a condition that tells them apart may be missing. Equal entries are not always repeated.

Tested on: DOHH2 cells
Test: RT2 Glucocorticoid signaling PCR array, DOHH2 cell line (Table 4b)
Format: cell-based
Details: DOHH2, 4 days

Q: What does the source list for `C[C@]12C=CC(=O)C=C1CC[C@@H]1[C@@H]2[C@@H](O)C[C@@]2(C)[C@H]1CC[C@]2(O)C(=O)CO` [Prednisolone, prednisolone]?
A: ACTB Ct Values: 14.721; ADARB1 Ct Values: 33.560; AFF1 Ct Values: 23.992; AK2 Ct Values: 20.262; AMPD3 Ct Values: 27.535; ANGPTL4 Ct Values: 31.538; ANXA4 Ct Values: 24.997; ARID68 Ct Values: 23.885; ASPH Ct Values: 23.369; ATF4 Ct Values: 19.313; B2M Ct Values: 18.884; BCL6 Ct Values: 21.801; BMPER Ct Values: 39.378; CEBPA Ct Values: 32.188; CEBPB Ct Values: 24.317; COL4A2 Ct Values: 38.993; CREB1 Ct Values: 22.890; CREB3 Ct Values: 24.865; CREB3L4 Ct Values: 24.616; CTGF Ct Values: 33.728; CYB561 Ct Values: 39.582; DDIT4 Ct Values: 24.105; DUSP1 Ct Values: 27.866; EDN1 Ct Values: 32.263; EHD3 Ct Values: 31.098; ERRFI1 Ct Values: 32.635; FK8PS Ct Values: 20.912; FOSL2 Ct Values: 31.543; GAPDH Ct Values: 16.551; GDPD1 Ct Values: 27.884; GHRHR Ct Values: 36.095; GLUL Ct Values: 34.574; GOT1 Ct Values: 23.532; H6PD Ct Values: 24.696; HNRPLL Ct Values: 33.284; HPRT1 Ct Values: 21.777; IL1RN Ct Values: 33.560; IL6 Ct Values: 34.758; KLF9 Ct Values: 28.547; KLF13 Ct Values: 22.546; LOX Ct Values: 34.158; MERTK Ct Values: 32.892; NFKBIA Ct Values: 22.830; NR3C1 Ct Values: 22.794; PDCD7 Ct Values: 23.552; PDGFRB Ct Values: 34.934; PDP1 Ct Values: 25.682; PER1 Ct Values: 25.142; PER2 Ct Values: 24.159; PIK3R1 Ct Values: 23.850; PLD1 Ct Values: 37.120; PLEKHF1 Ct Values: 29.414; POU2F1 Ct Values: 24.648; POU2F2 Ct Values: 22.489; RASA3 Ct Values: 27.803; RGS2 Ct Values: 25.514; RHOB Ct Values: 33.162; RPLP0 Ct Values: 15.128; SESN1 Ct Values: 22.839; SGK1 Ct Values: 29.628; SLC10A6 Ct Values: 36.176; SLC19A2 Ct Values: 25.455; SLC22A5 Ct Values: 28.915; SNTA1 Ct Values: 25.124; SPHK1 Ct Values: 29.971; SPSB1 Ct Values: 26.911; STAT5A Ct Values: 23.565; STAT5B Ct Values: 22.632; TBL1XR1 Ct Values: 21.304; TNF Ct Values: 31.956; TSC22D3 Ct Values: 23.310; USP2 Ct Values: 23.501; USPS4 Ct Values: 26.683; VDR Ct Values: 26.847; VLDLR Ct Values: 28.584; ZFP36 Ct Values: 24.270; ZHX3 Ct Values: 24.418; ZNF281 Ct Values: 23.828; PPC Ct Values (array control, three lines): 18.684 and 18.699 and 19.076; RTC Ct Values (array control, three lines): 21.449 and 21.464 and 21.483; ADARB1 ΔCT (B2M) (normalized to B2M): 14.676; AFF1 ΔCT (B2M) (normalized to B2M): 5.108; AK2 ΔCT (B2M) (normalized to B2M): 1.378; AMPD3 ΔCT (B2M) (normalized to B2M): 8.651; ANGPTL4 ΔCT (B2M) (normalized to B2M): 12.654; ANXA4 ΔCT (B2M) (normalized to B2M): 6.113; ARID68 ΔCT (B2M) (normalized to B2M): 5.001; ASPH ΔCT (B2M) (normalized to B2M): 4.485; ATF4 ΔCT (B2M) (normalized to B2M): 0.429; B2M ΔCT (B2M) (normalized to B2M): 0.000; BCL6 ΔCT (B2M) (normalized to B2M): 2.917; BMPER ΔCT (B2M) (normalized to B2M): 20.494; CEBPA ΔCT (B2M) (normalized to B2M): 13.304; CEBPB ΔCT (B2M) (normalized to B2M): 5.433; COL4A2 ΔCT (B2M) (normalized to B2M): 20.109; CREB1 ΔCT (B2M) (normalized to B2M): 4.006; CREB3L4 ΔCT (B2M) (normalized to B2M): 5.732; CREB3 ΔCT (B2M) (normalized to B2M): 5.981; CTGF ΔCT (B2M) (normalized to B2M): 14.844; CYB561 ΔCT (B2M) (normalized to B2M): 20.698; DDIT4 ΔCT (B2M) (normalized to B2M): 5.221; DUSP1 ΔCT (B2M) (normalized to B2M): 8.982; EDN1 ΔCT (B2M) (normalized to B2M): 13.379; EHD3 ΔCT (B2M) (normalized to B2M): 12.214; ERRFI1 ΔCT (B2M) (normalized to B2M): 13.751; FK8PS ΔCT (B2M) (normalized to B2M): 2.028; FOSL2 ΔCT (B2M) (normalized to B2M): 12.659; GAPDH ΔCT (B2M) (normalized to B2M): −2.333; GDPD1 ΔCT (B2M) (normalized to B2M): 9.000; GHRHR ΔCT (B2M) (normalized to B2M): 17.211; GLUL ΔCT (B2M) (normalized to B2M): 15.690; GOT1 ΔCT (B2M) (normalized to B2M): 4.648; H6PD ΔCT (B2M) (normalized to B2M): 6.085; HNRPLL ΔCT (B2M) (normalized to B2M): 14.400; HPRT1 ΔCT (B2M) (normalized to B2M): 2.893; IL1RN ΔCT (B2M) (normalized to B2M): 14.676; IL6 ΔCT (B2M) (normalized to B2M): 19.457; KLF9 ΔCT (B2M) (normalized to B2M): 9.663; KLF13 ΔCT (B2M) (normalized to B2M): 3.662; LOX ΔCT (B2M) (normalized to B2M): 15.274; MERTK ΔCT (B2M) (normalized to B2M): 14.008; NFKBIA ΔCT (B2M) (normalized to B2M): 3.946; NR3C1 ΔCT (B2M) (normalized to B2M): 3.910; PDCD7 ΔCT (B2M) (normalized to B2M): 4.668; PDGFRB ΔCT (B2M) (normalized to B2M): 16.050; PDP1 ΔCT (B2M) (normalized to B2M): 6.798; PER1 ΔCT (B2M) (normalized to B2M): 6.258; PER2 ΔCT (B2M) (normalized to B2M): 5.275; PIK3R1 ΔCT (B2M) (normalized to B2M): 4.966; PLD1 ΔCT (B2M) (normalized to B2M): 18.236; PLEKHF1 ΔCT (B2M) (normalized to B2M): 10.530; POU2F1 ΔCT (B2M) (normalized to B2M): 5.764; POU2F2 ΔCT (B2M) (normalized to B2M): 3.605; RASA3 ΔCT (B2M) (normalized to B2M): 8.919; RGS2 ΔCT (B2M) (normalized to B2M): 6.630; RHOB ΔCT (B2M) (normalized to B2M): 14.278; RPLP0 ΔCT (B2M) (normalized to B2M): −3.756; SESN1 ΔCT (B2M) (normalized to B2M): 3.955; SGK1 ΔCT (B2M) (normalized to B2M): 10.744; SLC10A6 ΔCT (B2M) (normalized to B2M): 17.292; SLC19A2 ΔCT (B2M) (normalized to B2M): 6.571; SLC22A5 ΔCT (B2M) (normalized to B2M): 10.031; SNTA1 ΔCT (B2M) (normalized to B2M): 6.240; SPHK1 ΔCT (B2M) (normalized to B2M): 11.087; SPSB1 ΔCT (B2M) (normalized to B2M): 8.027; STAT5A ΔCT (B2M) (normalized to B2M): 5.001; STAT5B ΔCT (B2M) (normalized to B2M): 3.748; TBL1XR1 ΔCT (B2M) (normalized to B2M): 2.420; TNF ΔCT (B2M) (normalized to B2M): 13.072; TSC22D3 ΔCT (B2M) (normalized to B2M): 4.426; USP2 ΔCT (B2M) (normalized to B2M): 4.617; USPS4 ΔCT (B2M) (normalized to B2M): 7.799; VDR ΔCT (B2M) (normalized to B2M): 7.963; VLDLR ΔCT (B2M) (normalized to B2M): 9.700; ZFP36 ΔCT (B2M) (normalized to B2M): 5.386; ZHX3 ΔCT (B2M) (normalized to B2M): 5.534; ZNF281 ΔCT (B2M) (normalized to B2M): 4.944; RTC ΔCT (B2M) (normalized to B2M, array control, three lines): 2.565 and 2.580 and 2.599; ADARB1 ΔΔCT (vs DMSO): 1.867; AFF1 ΔΔCT (vs DMSO): −0.567; AK2 ΔΔCT (vs DMSO): 0.053; AMPD3 ΔΔCT (vs DMSO): 1.259; ANGPTL4 ΔΔCT (vs DMSO): 0.529; ANXA4 ΔΔCT (vs DMSO): 0.305; ARID68 ΔΔCT (vs DMSO): 0.129; ASPH ΔΔCT (vs DMSO): 0.524; ATF4 ΔΔCT (vs DMSO): 0.282; BCL6 ΔΔCT (vs DMSO): 0.397; BMPER ΔΔCT (vs DMSO): 1.466; CEBPA ΔΔCT (vs DMSO): −2.341; CEBPB ΔΔCT (vs DMSO): 0.531; COL4A2 ΔΔCT (vs DMSO): 6.804; CREB1 ΔΔCT (vs DMSO): 0.085; CREB3L4 ΔΔCT (vs DMSO): 0.336; CREB3 ΔΔCT (vs DMSO): 0.061; CTGF ΔΔCT (vs DMSO): 0.142; CYB561 ΔΔCT (vs DMSO): 1.917; DDIT4 ΔΔCT (vs DMSO): 0.296; DUSP1 ΔΔCT (vs DMSO): 0.387; EDN1 ΔΔCT (vs DMSO): 1.155; EHD3 ΔΔCT (vs DMSO): −1.092; ERRFI1 ΔΔCT (vs DMSO): 0.235; FK8PS ΔΔCT (vs DMSO): −0.948; FOSL2 ΔΔCT (vs DMSO): −0.099; GDPD1 ΔΔCT (vs DMSO): 0.477; GHRHR ΔΔCT (vs DMSO): −1.464; GLUL ΔΔCT (vs DMSO): −1.434; GOT1 ΔΔCT (vs DMSO): 0.230; H6PD ΔΔCT (vs DMSO): 0.377; HNRPLL ΔΔCT (vs DMSO): 3.085; KLF9 ΔΔCT (vs DMSO): −0.019; KLF13 ΔΔCT (vs DMSO): −0.280; LOX ΔΔCT (vs DMSO): 0.721; MERTK ΔΔCT (vs DMSO): 0.020; NFKBIA ΔΔCT (vs DMSO): 0.064; NR3C1 ΔΔCT (vs DMSO): 0.317; PDCD7 ΔΔCT (vs DMSO): 0.021; PDP1 ΔΔCT (vs DMSO): −0.056; PER1 ΔΔCT (vs DMSO): 0.323; PER2 ΔΔCT (vs DMSO): −0.358; PIK3R1 ΔΔCT (vs DMSO): −0.202; PLD1 ΔΔCT (vs DMSO): 0.207; PLEKHF1 ΔΔCT (vs DMSO): −0.347; POU2F1 ΔΔCT (vs DMSO): 0.395; POU2F2 ΔΔCT (vs DMSO): 0.145; RASA3 ΔΔCT (vs DMSO): 0.776; RGS2 ΔΔCT (vs DMSO): 0.849; RHOB ΔΔCT (vs DMSO): 0.626; SESN1 ΔΔCT (vs DMSO): −1.262; SGK1 ΔΔCT (vs DMSO): 2.120; SLC10A6 ΔΔCT (vs DMSO): 1.818; SLC19A2 ΔΔCT (vs DMSO): −0.020; SLC22A5 ΔΔCT (vs DMSO): 0.648; SNTA1 ΔΔCT (vs DMSO): 0.665; SPHK1 ΔΔCT (vs DMSO): −0.581; SPSB1 ΔΔCT (vs DMSO): −0.074; STAT5A ΔΔCT (vs DMSO): −0.227; STAT5B ΔΔCT (vs DMSO): 0.254; TBL1XR1 ΔΔCT (vs DMSO): 0.032; TNF ΔΔCT (vs DMSO): 0.753; TSC22D3 ΔΔCT (vs DMSO): −1.741; USP2 ΔΔCT (vs DMSO): −0.478; USPS4 ΔΔCT (vs DMSO): 0.209; VDR ΔΔCT (vs DMSO): −0.434; VLDLR ΔΔCT (vs DMSO): 1.543; ZFP36 ΔΔCT (vs DMSO): 0.225; ZHX3 ΔΔCT (vs DMSO): −0.657; ZNF281 ΔΔCT (vs DMSO): −0.113
